For 16 compounds, IC50 and MIC results are on record in ChEMBL document CHEMBL4020801, “New merosesquiterpenes from a Vietnamese marine sponge of Spongia sp. and their biological activities” (Bioorg Med Chem Lett, 2017).

≈ marks a conversion by molar mass, not a printed value.

One test relates to WI-38. Nature of the test: Cytotoxicity against human WI38 cells assessed as decrease in cell viability after 72 hrs by WST8 assay. The test is classed as cell-based. The following applies: WI-38, 72 h. (Formazan colour is commonly taken as a measure of viable cells.)
The next test deals with A549. As to the kind of experiment: Cytotoxicity against human A549 cells assessed as decrease in cell viability after 72 hrs by WST8 assay. To be noted: A549, 72 h. The test is classed as functional, cell-based.
The subject of another test is Bacillus subtilis. As to the kind of experiment: Antibacterial activity against Bacillus subtilis NBRC 13719 after 12 hrs by MTT assay. The test is classed as functional. To be noted: NBRC 13719, 12 h.
A further test deals with Klebsiella pneumoniae. Nature of the test: Antibacterial activity against Klebsiella pneumoniae NBRC 14940 after 12 hrs by MTT assay. The test is classed as functional. To be noted: NBRC 14940, 12 h.
In the next test the test system is HeLa. As to the kind of experiment: Cytotoxicity against human HeLa cells assessed as decrease in cell viability after 72 hrs by WST8 assay. The test is classed as functional, cell-based.
The test system of a further test is Staphylococcus aureus. As to the kind of experiment: Antibacterial activity against Staphylococcus aureus NBRC 100910 after 12 hrs by MTT assay. The test is classed as functional. To be noted: NBRC 100910, 12 h.
The test system of the next test is MCF7. As to the kind of experiment: Cytotoxicity against human MCF7 cells assessed as decrease in cell viability after 72 hrs by WST8 assay. The test is classed as functional, cell-based. The following applies: MCF7, 72 h.
A further test has as its system Escherichia coli. As to the kind of experiment: Antibacterial activity against Escherichia coli NBRC 102203 after 12 hrs by MTT assay. The test is classed as functional. The following applies: NBRC 102203, 12 h.

A word on the IC50: it is the concentration at which inhibition is half-maximal. The MIC is the smallest concentration in the dilution series that meets the test's criterion for growth inhibition. High values mean weaker potency, low ones greater potency. For `C=C1CCC[C@H]2[C@](C)(CC3=C(O)C(=O)C=C(NCCc4ccccc4)C3=O)[C@@H](C)CC[C@]12C`, the IC50 with WI-38 amounted to 3 µM; with A549 it was 4 µM; with HeLa, 5 µM; with MCF7, 6.5 µM. In addition, the minimum inhibitory concentration (MIC) against Bacillus subtilis was 6.25 µM (≈ 2.8 µg/mL); against Klebsiella pneumoniae, greater than 100 µM; in the test on Staphylococcus aureus it was 6.25 µM (≈ 2.8 µg/mL); in the test on Escherichia coli, greater than 100 µM.
Consider `C=C1CCC[C@H]2[C@](C)(CC3=C(O)C(=O)C=C(OC)C3=O)[C@@H](C)CC[C@]12C` [ILIMAQUINONE], for which the half-inhibitory concentration (IC50) with WI-38 is 9.7 µM; with A549, 5.9 µM; in the test on HeLa, 7.6 µM; in the test with MCF7, 8.3 µM. The minimal inhibitory concentration (MIC) against Bacillus subtilis is 6.25 µM (≈ 2.24 µg/mL); against Klebsiella pneumoniae it was greater than 100 µM; in the test with Staphylococcus aureus, 6.25 µM (≈ 2.24 µg/mL); against Escherichia coli, greater than 100 µM.
For `C=C1CCC[C@@H]2[C@@](CO)(Cc3cc(C(=O)OC)cc(OC)c3O)[C@H](C)CC[C@@]12C`, the 50% inhibitory concentration (IC50) is greater than 50 µM with WI-38, greater than 50 µM in the test on A549, greater than 50 µM with HeLa and 42.6 µM with MCF7. Also, the minimal inhibitory concentration (MIC) in the test with Bacillus subtilis, against Klebsiella pneumoniae, against Staphylococcus aureus and against Escherichia coli was greater than 100 µM throughout.
As for `C=C1CCC[C@H]2[C@](C)(CC3=C(O)C(=O)C=C(NCCCSC)C3=O)[C@@H](C)CC[C@]12C`, the half-inhibitory concentration (IC50) in the test with WI-38 came out at 8.8 µM; in the test on A549 it was 6.2 µM; with HeLa, 8 µM; with MCF7, 8.7 µM. Moreover, the MIC was 12.5 µM (≈ 5.4 µg/mL) against Bacillus subtilis, greater than 100 µM in the test with Klebsiella pneumoniae, 12.5 µM (≈ 5.4 µg/mL) in the test on Staphylococcus aureus and greater than 100 µM with Escherichia coli.
For `C=C1CCC[C@H]2[C@](C)(CC3=C(O)C(=O)C=C(NCC(C)CC)C3=O)[C@@H](C)CC[C@]12C` (some centres not stated), the IC50 was 6.9 µM with WI-38, 8.9 µM with A549, 4.8 µM in the test on HeLa and 7.6 µM with MCF7. Also, the MIC was 6.25 µM (≈ 2.59 µg/mL) in the test with Bacillus subtilis, greater than 100 µM with Klebsiella pneumoniae, 6.25 µM (≈ 2.59 µg/mL) against Staphylococcus aureus and greater than 100 µM against Escherichia coli.
Take `NC[C@H]1O[C@H](O[C@H]2[C@H](O)[C@@H](O[C@H]3O[C@H](CO)[C@@H](O)[C@H](N)[C@H]3O)[C@H](N)C[C@@H]2N)[C@H](O)[C@@H](O)[C@@H]1O` [KANAMYCIN]: the figures for the MIC against Klebsiella pneumoniae and in the test with Escherichia coli were 6.25 µM (≈ 3.03 µg/mL) and 12.5 µM (≈ 6.06 µg/mL), respectively.
Consider `C=C1CCC[C@H]2[C@](C)(CC3=C(O)C(=O)C=C(NCC(C)C)C3=O)[C@@H](C)CC[C@]12C`, for which the half-maximal inhibitory concentration (IC50) came to 3.5 µM in the test with WI-38, 6.7 µM in the test on A549, 7.6 µM with HeLa and 4.6 µM with MCF7. Further, the minimal inhibitory concentration (MIC) in the test on Bacillus subtilis was 12.5 µM (≈ 4.99 µg/mL); against Klebsiella pneumoniae, greater than 100 µM; against Staphylococcus aureus, 25 µM (≈ 9.99 µg/mL); against Escherichia coli, greater than 100 µM.
For `C=C1CCC[C@@H]2[C@@](C)(Cc3cc(C(=O)OC)cc(OC)c3O)[C@H](C)CC[C@@]12C`, the half-maximal inhibitory concentration (IC50) with WI-38, in the test with A549, in the test on HeLa and in the test with MCF7 was greater than 50 µM each time. For the same compound, the MIC against Bacillus subtilis, with Klebsiella pneumoniae, in the test with Staphylococcus aureus and with Escherichia coli was greater than 100 µM in each case.
With `C=C1CCC[C@@H]2[C@@](C=O)(Cc3cc(C(=O)OC)c(O)c(OC)c3O)[C@H](C)CC[C@@]12C`, the 50% inhibitory concentration (IC50) amounted to 8.7 µM in the test on WI-38, 7.8 µM in the test with A549, 7.2 µM in the test with HeLa and 5 µM in the test on MCF7. Moreover, the minimal inhibitory concentration (MIC) is 25 µM (≈ 10.4 µg/mL) against Bacillus subtilis, greater than 100 µM in the test with Klebsiella pneumoniae, greater than 100 µM in the test with Staphylococcus aureus and greater than 100 µM in the test with Escherichia coli.
Consider `C=C1CCC[C@@H]2[C@@](C)(Cc3cc(C(=O)OC)c(O)c(OC)c3O)[C@H](C)CC[C@@]12C`, for which the concentration for half-maximal inhibition (IC50) with WI-38, in the test with A549, with HeLa and in the test on MCF7 was greater than 50 µM each time. The minimum inhibitory concentration (MIC) against Bacillus subtilis is 12.5 µM (≈ 5.03 µg/mL); with Klebsiella pneumoniae, greater than 100 µM; against Staphylococcus aureus it was greater than 100 µM; against Escherichia coli it was greater than 100 µM.
As to `C=C1CCC[C@@H]2[C@@](CO)(Cc3cc(C(=O)OC)c(O)c(OC)c3O)[C@H](C)CC[C@@]12C`, the 50% inhibitory concentration (IC50) is 42.1 µM in the test on WI-38, greater than 50 µM with A549, greater than 50 µM in the test on HeLa and greater than 50 µM with MCF7. Moreover, the MIC with Bacillus subtilis, with Klebsiella pneumoniae, in the test with Staphylococcus aureus and against Escherichia coli was greater than 100 µM throughout.
Take `C=C1CCC[C@@H]2[C@@](C)(Cc3cc(C(=O)OC)cc(O)c3O)[C@H](C)CC[C@@]12C`: the IC50 in the test with WI-38, with A549, in the test with HeLa and in the test on MCF7 was greater than 50 µM throughout. For the same compound, the MIC in the test with Bacillus subtilis was 6.25 µM (≈ 2.33 µg/mL); in the test with Klebsiella pneumoniae, greater than 100 µM; in the test on Staphylococcus aureus it was 6.25 µM (≈ 2.33 µg/mL); against Escherichia coli, greater than 100 µM.
`C=C1CCC[C@H]2[C@](C)(CC3=C(O)C(=O)C=C(OCCCC)C3=O)[C@@H](C)CC[C@]12C`: the IC50 with WI-38 turned out to be 8.2 µM; in the test on A549, 6.6 µM; with HeLa, 7.6 µM; in the test with MCF7, 9.6 µM. Moreover, the MIC in the test on Bacillus subtilis was 6.25 µM (≈ 2.5 µg/mL); with Klebsiella pneumoniae, greater than 100 µM; in the test with Staphylococcus aureus, 12.5 µM (≈ 5.01 µg/mL); in the test on Escherichia coli, greater than 100 µM.
Consider `C=C1CCC[C@@H]2[C@@](C=O)(Cc3cc(C(=O)OC)cc(OC)c3O)[C@H](C)CC[C@@]12C`, for which the IC50 in the test with WI-38, in the test on A549, with HeLa and in the test on MCF7 was greater than 50 µM each time. In addition, the MIC against Bacillus subtilis, against Klebsiella pneumoniae, in the test on Staphylococcus aureus and with Escherichia coli was greater than 100 µM in each case.
Regarding `O=c1[nH]cc(F)c(=O)[nH]1` [FLUOROURACIL], the IC50 in the test with WI-38 turned out to be 6.8 µM; in the test on A549 it was 4.7 µM; in the test on HeLa it was 5.3 µM; in the test on MCF7, 5.6 µM.
For the compound `CC1(C)S[C@@H]2[C@H](NC(=O)[C@H](N)c3ccccc3)C(=O)N2[C@H]1C(=O)O` [AMPICILLIN], the MIC against Bacillus subtilis and in the test with Staphylococcus aureus was 6.25 µM (≈ 2.18 µg/mL) each time.
